These results are taken from patent US20180015167A1, “CROSSLINKABLE TREHALOSE FOR THE COVALENT INCORPORATION IN HYDROGELS AND METHODS OF USE” (INVIVO THERAPEUTICS CORPORATION, priority 2013, published 2018).

The data set is described as follows: Solubility of hydrogel precursors in water / aqueous buffer. Format: physicochemical. As for the experimental part: Hydrogels formed by mixing trehalose diacrylate and thiol-containing 4-arm PEG of molecular weight 5000 (4arm-PEG5k-SH). Briefly, trehalose diacrylate was dissolved in PBS (pH7.4, 1.06 mM potassium phosphate monobasic, 150 mM sodium chloride, 2.97 mM sodium phosphate dibasic) to prepare a trehalose-containing precursor solution at a concentration of 50 mg/ml. 9.42 mg 4arm-PEG5k-SH (0.0075 mmol thiols) was dissolved in 66.1 μl PBS and the solution was mixed with 33.9 μl trehalose diacrylate solution (1.7 mg, 1 molar equivalents based on thiols) and by vortexing.
Hydrogels formed by mixing ethoxylated-trimethylolpropan tri(thioglycolate) (TMPE-TGA), PEG diacrylate, and varying amounts of trehalose diacrylate. The following protocol has been used for gel formulation at the 150 μl scale. Briefly, TMPE-TGA was dissolved in PBS to prepare a 40 wt % thiol-containing precursor solution. Trehalose diacrylate was dissolved in PBS to prepare a trehalose-containing precursor solution at a concentration of 40 mg/ml. 10.875 mg PEG diacrylate of molecular weight 700 (PEGDA700, 0.75 molar equivalents based on thiols) was dissolved in 49.94 μl PBS and the solution was mixed with 58.3 μl trehalose diacrylate solution (2.33 mg, 0.25 molar equivalents based on thiols) and 41.8 μl TMPE-TGA solution (0.041 mmol thiols) by vortexing. […]

As to `C=CC(=O)OC[C@H]1O[C@H](O[C@H]2O[C@H](COC(=O)C=C)[C@@H](O)[C@H](O)[C@H]2O)[C@H](O)[C@@H](O)[C@@H]1O` [trehalose diacrylate], the “solubility in aqueous buffer” value (PBS pH7.4, room temperature) is listed as “soluble in aqueous buffer”. Also, the water solubility entry (PBS, room temperature) is “water soluble”.
